{"source": "patent US4431807A", "about": "“4-Methyl-5-(unsubstituted and substituted phenoxy)-6-methoxy-8-(aminoalkylamino)quinolines” (priority 1981, dated 1984)", "origin": "cited, not measured here", "key": {"Plasmodium cynomolgi": {"tested_on": "Plasmodium cynomolgi", "conditions": "prior art compounds; cited from earlier work"}, "Plasmodium berghei": {"tested_on": "Plasmodium berghei", "conditions": "cited from earlier work; for Δ MST / Cures: 5 mice, Table I"}}, "note": "Where two headings read alike, the source gives them in different places.", "data": [{"molecule": "COc1cc(NC(C)CCCN)c2ncccc2c1Oc1ccc(F)cc1", "note": "(stereo not shown) [5-(4-Fluorophenoxy)Primaquine, 5-(4-fluorophenoxy)primaquine]", "values": [{"measurement": "Radical curative activity relative to primaquine", "setting": "Plasmodium cynomolgi", "result": "no more active than primaquine"}, {"measurement": "Δ MST", "setting": "Plasmodium berghei; 80 mg/kg", "result": 7.0, "unit": "days"}, {"measurement": "Δ MST", "setting": "Plasmodium berghei; 160 mg/kg", "result": 9, "unit": "days"}, {"measurement": "Cures", "setting": "Plasmodium berghei; 320 mg/kg", "result": 5, "unit": "C"}, {"measurement": "Cures", "setting": "Plasmodium berghei; 640 mg/kg", "result": 5, "unit": "C"}, {"measurement": "Suppressive activity", "setting": "Plasmodium berghei; 320 and 640 mg/kg", "result": "active and non-toxic"}, {"measurement": "Suppressive activity relative to mefloquine", "setting": "Plasmodium berghei; prior art compound", "result": "distinctly inferior"}]}]}
